Experimental data published in patent publication US10085983B2, “Azabicyclo derivatives, process for preparation thereof and medical use thereof” (Shanghai Haiyan Pharmaceutical Technology Co., Ltd., priority 2014, dated 2018).

Legend:
[1] = target: T790M/L858R double mutant EGFR kinase (Homo sapiens (Human), UniProt P00533, L858R/T790M); assay: z'-lyte assay of inhibitory activity on T790M/L858R double mutant EGFR kinase; type: biochemical; settings: for Selective inhibitory activity against enzymes [IC50 (EGFR WT)/IC50 (T790M/L858R)]: ratio of enzyme IC50 values; for IC50: z'-lyte assay, 25 μM ATP
[2] = target: EGFR phosphorylation in H1975 (EGFR T790M mutant) cells (Homo sapiens (Human), UniProt P00533, L858R/T790M); assay: Inhibition of EGFR phosphorylation in H1975 cells (ELISA); type: cell-based; settings: for IC50: ELISA of EGFR phosphorylation, 1 h compound treatment, read-out: H1975 cell (IC50/μM); for Selective inhibitory activity against targets at the cell level [IC50 (A431 cell)/IC50 (H1975 cell)]: ratio of ELISA IC50 values;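 as to all read-outs here: Phospho-EGFR in cell lysates measured by capture-antibody ELISA with TMB substrate after compound exposure, cells given DMSO alone (0.5% final) serving as control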
Procedure: (§1) In the following methods, the reagents used, the preparation methods of solutions, the cell treatment and the preparation steps of the lysis solution, as well as the ELISA assay steps, were carried out according to the instructions of R&D DYC3570, R&D DYC1095E and R&D DYC1095BE.
(§2) Cell lysis solution: Cell lysis buffer+10 μg/mL Aprotinin (Sigma)+10 μg/mL Leupeptin (Sigma), prepared on site.
(§3) Wash buffer: PBS buffer containing 0.05% (v/v) Tween-20.
(§4) Blocking solution: PBS buffer containing 1% (w/v) BSA.
(1) H1975 cells (purchased from the Cell Bank of the Type Culture Collection Committee, Chinese Academy of Sciences) were seeded into 96-well plates at a density of 1×10^4/well, each cell containing 90 μl of RPMI1640 medium with 10% (V/V) FBS, and cultured overnight at 37° C. in 5% (v/v) CO2.
(2) The compounds to be tested were diluted in accordance with the drug dilution method in the MTT assay. 10 μL of the diluted compound or diluted DMSO was added to the corresponding wells of the cell culture plate, and the final concentration of DMSO was 0.5% (V/V). The plate was cultured at 37° C. in 5% (v/v) CO2 for 1 h. The cell culture system treated with DMSO alone was used as cell control.
(3) The medium was removed and then 100 μL of cell lysis solution was added. The plate was sealed and placed in a refrigerator at −80° C. overnight. The cell lysis buffer was used as blank control.
The assay was conducted according to the instructions given in R&D DYC1095E or R&D DYC1095BE.
(1) R&D capture antibody ((DYC1095BE or DYC1095E)) was diluted with PBS in the proportion of 1:180.
(§5) (2) The plate was washed 3 times with 360 μL of the wash buffer.
(3) 300 μL of the blocking solution was added and the plate was incubated at 25° C. with shaking for 2 hours.
(4) The plate was washed 3 times with 360 μL of the wash buffer.
(§6) (5) 40 μL of cell lysis buffer and 60 μL of cell lysis solution were added and the plate was incubated at 25° C. with shaking for 2 hours.
(§7) (6) The plate was washed 3 times with 360 μL of the wash buffer.
(§8) (7) The detection antibody was diluted with the detection antibody diluent in the proportion specified in the instructions of the kit. 100 μL of the diluted antibody was added to each well and the plate was incubated at 25° C. with shaking in dark for 1 h.
(8) The plate was washed 3 times with 360 μL of wash buffer.
(9) A reagent and B reagent in the TMB substrate (R&D DY999) were mixed in 1:1. 100 μL of the mixture was added to each well and incubated in dark at 25° C. with shaking for 20 min.
(§9) (10) 50 μL of 2N H2SO4 was added to each well.
(11) The plate was read with a microplate reader (Thermo Multiskan K3). OD 450 values and OD570 values of the cell control, blank control, and drug treatment wells were measured. ODcell, ODblank and ODdrug treatment were obtained by subtracting the corresponding OD570 value from the OD 450 value of the same well.
2.3 Data Analysis Inhibition rate (%)=100%×(ODcell−ODdrug treatment)/(ODcell−ODblank)

[3] = target: EGFR phosphorylation in A431 (EGFR wild-type) cells (Homo sapiens (Human), UniProt P00533); assay: Inhibition of EGFR phosphorylation in A431 cells (ELISA); type: cell-based; settings: 1 h compound treatment, EGF stimulation, read-out: A431 cell (IC50/μM)
Procedure: as §1
I. Reagents and Solutions
as §2, §3, §4
3.1 A431 Cell Treatment and Testing Procedures
(1) A431 cells (purchased from the Cell Bank of the Type Culture Collection Committee, Chinese Academy of Sciences) were seeded in 96-well plates at a density of 1×10^4/well in 90 μl of DMEM medium containing 10% FBS and cultured at 37° C. in 5% CO2 overnight.
(2) The A431 cell culture medium was replaced with 90 μl of serum-free DMEM medium and the plate was cultured overnight.
(3) The compound to be tested was diluted according to the drug dilution method in MTT assay. 10 μL of the diluted compound or diluted DMSO was added to the corresponding wells of the cell culture plate, and the final concentration of DMSO was 0.5%. The plate was cultured at 37° C. in 5% CO2 for 1 hour. […] The cells without EGF and drug treatment were used as cell control, and the cells treated with EGF without drugs were used as EGF control.
(4) The medium was removed and then 100 μL of the cell lysis solution was added. The plate was sealed and placed in a refrigerator at −80° C. overnight.
The assay was conducted according to the instructions given in R&D DYC3570E.
(1) R&D capture antibody (DYC3570E) was diluted with PBS in the proportion of 1:180.
as §5
(3) 200 μL of the blocking solution was added and the plate was incubated at 25° C. with shaking for 2 hours.
(4) The plate was washed 3 times with 360 μL of wash buffer.
as §6, §7, §8
(8) The plate was washed 3 times with 360 μL of the wash buffer.
(9) A reagent and B reagent in TMB substrate (R&D DY999) were mixed in 1:1. 100 μL of the mixture was added to each well and incubated in dark at 25° C. with shaking for 20 min.
as §9
(11) The plate was read with a microplate reader (Thermo Multiskan K3). OD 450 values and OD570 values of the cell control, blank control, and drug treatment wells were measured. ODEGF, ODdrug and ODcell were obtained by subtracting the corresponding OD570 value from the OD 450 value of the same well.
3.3 Data Analysis Inhibition rate (%)=100%×(ODEGF−ODdrug)/(ODEGF−ODcell)

H1975 cells = assay: Cell growth inhibition by MTT assay, H1975 cells; type: cell-based; settings: for IC50: MTT assay, 72 hours; for Selective inhibitory activity against cell growth [IC50 (A431 cell)/IC50 (H1975 cell)]: ratio of MTT IC50 values;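 as to all read-outs here: MTT read-out in 96-well plates after 72 h compound exposure of H1975 and A431 cells, with selectivity given as the A431 IC50 divided by the H1975 IC50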
Procedure: (§10) The steps of the MTT assay were carried out using methods well known to those skilled in the art, and all the reagents used in the methods are commercially available.
(§11) After the first wash, another 1.5 mL of trypsin/EDTA was added to digest the adherent cells until the cells detached. Then 3.5 mL of the culture medium was added to terminate the digestion. The digested cell suspension was transferred to a 15 mL centrifuge tube and centrifuged at 1300 rpm for 3 minutes. The supernatant was discarded and the cells were resuspended in fresh medium. The cells were then counted and diluted to the following concentrations: 27,800 cells per milliliter of H1975 cells, 33,300 cells per milliliter of A431 cells and NIH3T3 cells (purchased from the Cell Bank of the Type Culture Collection Committee, Chinese Academy of Sciences).
(§12) After the drug was added, the cells were incubated in an incubator for 72 hours. 10 μL of 5 mg/ml MTT (Sigma, M5655) solution was added to each well. The 96-well plate was then incubated in a 37° C. and 5% CO2 incubator for 4 h.
(§13) The plate was then centrifuged at 2000 rpm for 5 min. After the supernatant was removed, 150 μl of DMSO was added to each well and the plate was shaken in a shaker until all crystal violet was dissolved.

A431 cells = assay: Cell growth inhibition by MTT assay, A431 cells; type: cell-based
Procedure: as §10, §11, §12, §13

NIH3T3 cells = assay: Toxicity test on NIH3T3 cells by MTT assay; type: cell-based
Procedure: as §10, §11, §12, §13

wild-type EGFR kinase = wild-type EGFR kinase (Homo sapiens (Human), UniProt P00533); settings: read-out: EGFR WT (IC50/μM); z'-lyte assay, 10 μM ATP
Procedure: All reagents used in the following z′-lyte assay were purchased from Invitrogen.
The working concentrations of each component in 10 μL wild-type EGFR kinase reaction system were: 10 μM ATP, 0.8 ng/μL wild-type EGFR kinase, 2 μM Tyr04 substrate (Invitrogen, PV3193). The concentration of DMSO after addition of the compound to be tested was 2 vol %.
10 mM drug stock solution was dissolved at room temperature and gradiently diluted to a final concentration of 4-0.002 μM with 8 vol % DMSO solution. […] Then 2.5 μl of ATP was added to initiate the reaction. Wherein, ATP was replaced by the reaction buffer in well C1, no drug was added to well C2, and the phosphorylated substrate was added to well C3 according to the instructions. The mixture was allowed to react at 25° C. in a shaker in dark for 60 min. 5 μL of Development Reagent B (Invitrogen, diluted with TR-FRET dilution buffer) was added and allowed to react at room temperature in the shaker for 60 minutes.
The inhibition rate was calculated according to the following method (refer to the instructions of Invitrogen, PV3193):
1. ER=Coumarin Emission (450 nm)/Fluorescein Emission (520 nm)
The half-inhibitory concentration IC50 was obtained through fitting calculation by using XLFIT 5.0 software (IDBS, UK).

[4] = tested on: T790M mutant cell line H1975; settings: background statement; cited from earlier work

Chain of EGFR phosphorylation in H1975 (EGFR T790M mutant) cells (P00533 25-1210 T790M/L858R): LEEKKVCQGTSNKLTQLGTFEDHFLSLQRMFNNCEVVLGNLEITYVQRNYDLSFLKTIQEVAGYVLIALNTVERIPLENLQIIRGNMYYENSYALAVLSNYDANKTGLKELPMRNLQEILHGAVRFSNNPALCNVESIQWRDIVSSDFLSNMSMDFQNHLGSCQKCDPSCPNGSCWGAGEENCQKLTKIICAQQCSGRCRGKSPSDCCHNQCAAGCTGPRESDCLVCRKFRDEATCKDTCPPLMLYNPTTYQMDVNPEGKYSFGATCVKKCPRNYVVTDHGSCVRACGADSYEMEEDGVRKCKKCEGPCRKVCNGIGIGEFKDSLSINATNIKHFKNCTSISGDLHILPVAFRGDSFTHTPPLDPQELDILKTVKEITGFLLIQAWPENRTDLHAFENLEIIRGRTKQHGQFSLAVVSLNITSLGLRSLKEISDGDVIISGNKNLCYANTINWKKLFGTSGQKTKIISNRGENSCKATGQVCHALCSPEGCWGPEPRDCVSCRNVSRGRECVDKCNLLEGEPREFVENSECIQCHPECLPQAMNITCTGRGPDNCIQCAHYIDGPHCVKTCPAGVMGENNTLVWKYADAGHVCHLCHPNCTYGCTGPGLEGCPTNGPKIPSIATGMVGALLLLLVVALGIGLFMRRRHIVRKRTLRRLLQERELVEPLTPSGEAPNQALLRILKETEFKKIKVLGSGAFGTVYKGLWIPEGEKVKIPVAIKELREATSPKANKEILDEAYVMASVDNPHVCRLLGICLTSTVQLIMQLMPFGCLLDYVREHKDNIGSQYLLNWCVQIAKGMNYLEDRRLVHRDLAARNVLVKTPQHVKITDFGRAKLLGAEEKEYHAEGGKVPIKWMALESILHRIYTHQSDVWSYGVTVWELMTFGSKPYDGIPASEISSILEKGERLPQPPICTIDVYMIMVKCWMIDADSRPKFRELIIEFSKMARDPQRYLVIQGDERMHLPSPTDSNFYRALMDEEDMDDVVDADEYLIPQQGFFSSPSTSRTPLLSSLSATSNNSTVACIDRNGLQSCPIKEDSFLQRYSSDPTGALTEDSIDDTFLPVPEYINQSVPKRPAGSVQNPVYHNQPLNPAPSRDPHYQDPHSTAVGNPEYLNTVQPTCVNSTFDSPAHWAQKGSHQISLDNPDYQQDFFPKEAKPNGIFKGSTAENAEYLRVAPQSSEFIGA
Chain of T790M/L858R double mutant EGFR kinase (P00533 25-1210 T790M/L858R): as above
Chain of wild-type EGFR kinase (P00533 25-1210): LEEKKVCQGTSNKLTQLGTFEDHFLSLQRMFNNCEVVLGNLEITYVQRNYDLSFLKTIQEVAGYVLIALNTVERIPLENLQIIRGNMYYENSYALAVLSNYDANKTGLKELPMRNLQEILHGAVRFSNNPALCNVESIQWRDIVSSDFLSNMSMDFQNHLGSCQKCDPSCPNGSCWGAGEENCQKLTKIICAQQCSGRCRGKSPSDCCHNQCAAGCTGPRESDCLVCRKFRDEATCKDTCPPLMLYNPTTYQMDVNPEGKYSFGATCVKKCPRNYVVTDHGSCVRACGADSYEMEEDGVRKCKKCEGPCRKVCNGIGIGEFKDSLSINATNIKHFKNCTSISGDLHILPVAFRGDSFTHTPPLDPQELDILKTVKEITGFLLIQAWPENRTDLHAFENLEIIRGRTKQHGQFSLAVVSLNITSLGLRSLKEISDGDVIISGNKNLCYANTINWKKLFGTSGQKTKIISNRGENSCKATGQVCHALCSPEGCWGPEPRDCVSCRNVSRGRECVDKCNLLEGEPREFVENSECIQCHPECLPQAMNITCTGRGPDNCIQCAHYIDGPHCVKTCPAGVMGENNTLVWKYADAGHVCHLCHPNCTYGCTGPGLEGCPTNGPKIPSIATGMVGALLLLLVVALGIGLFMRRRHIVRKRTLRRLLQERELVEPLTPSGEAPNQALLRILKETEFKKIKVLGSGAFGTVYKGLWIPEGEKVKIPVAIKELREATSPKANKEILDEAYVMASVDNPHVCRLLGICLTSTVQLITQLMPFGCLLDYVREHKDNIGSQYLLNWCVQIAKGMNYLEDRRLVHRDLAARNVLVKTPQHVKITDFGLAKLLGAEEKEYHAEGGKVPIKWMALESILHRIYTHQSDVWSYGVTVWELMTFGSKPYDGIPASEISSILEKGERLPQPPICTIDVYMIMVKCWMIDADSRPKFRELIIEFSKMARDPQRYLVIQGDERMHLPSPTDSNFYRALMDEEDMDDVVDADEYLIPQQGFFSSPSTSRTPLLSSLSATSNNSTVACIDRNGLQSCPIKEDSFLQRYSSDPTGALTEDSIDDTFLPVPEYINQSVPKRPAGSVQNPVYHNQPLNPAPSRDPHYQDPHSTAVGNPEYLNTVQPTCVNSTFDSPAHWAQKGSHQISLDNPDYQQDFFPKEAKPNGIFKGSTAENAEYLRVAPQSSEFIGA
Chain of EGFR phosphorylation in A431 (EGFR wild-type) cells (P00533 25-1210): as above

Row | Compound | Selective inhibitory activity against enzymes [IC50 (EGFR WT)/IC50 (T790M/L858R)] [1] | IC50 [1] | IC50 [2] | Selective inhibitory activity against targets at the cell level [IC50 (A431 cell)/IC50 (H1975 cell)] [2] | IC50 [3] | IC50 (H1975 cells) | Selective inhibitory activity against cell growth [IC50 (A431 cell)/IC50 (H1975 cell)] (H1975 cells) | IC50 (A431 cells; 72 hours) | IC50 (NIH3T3 cells; 72 hours) | IC50 (wild-type EGFR kinase) | IC50 (H1975 cells; Homo sapiens, NCI-H1975) | IC50 (A431 cells; Homo sapiens, A-431, 72 hours) | IC50 (NIH3T3 cells; Mus musculus, NIH3T3, 72 hours) | activity in the T790M mutant cell line H1975 [4]
1 | C=CC(=O)Nc1cc(Nc2ncc3ccc(C)n3n2)c(OC)cc1N(C)CCN(C)C [Compound J-9, N-(2-((2-(dimethylamino)ethyl)(methyl)amino)-4-methoxy-5-(7-methylpyrrolo[1,2-f][1,2,4]triazin-2-ylamino)phenyl)acrylamide] | 6.6 | 0.016 µM | 0.186 µM | 5 | 0.92 µM | 0.125 µM | 13.2 | 1.65 µM | > 10 µM | 0.105 µM |  |  |  | 
2 | C=CC(=O)Nc1cc(Nc2ncc3ccc(-c4ccccc4)n3n2)c(OC)cc1N(C)CCN(C)C [Compound J-11, N-(2-((2-(dimethylamino)ethyl)(methyl)amino)-4-methoxy-5-(7-phenylpyrrolo[1,2-f][1,2,4]triazin-2-ylamino)phenyl)acrylamide] | 4.2 | 0.0024 µM | 0.063 µM | 3.8 | 0.237 µM | 0.026 µM | 23.9 | 0.621 µM | 5.57 µM | 0.01 µM |  |  |  | 
3 | C=CC(=O)Nc1cc(Nc2ncc3ccc(-c4ccn(C)c4)n3n2)c(OC)cc1N(C)CCN(C)C [Compound J-12, N-(2-((2-(dimethylamino)ethyl)(methyl)amino)-4-methoxy-5-(7-(1-methyl-1H-pyrrol-3-yl)pyrrolo[1,2-f][1,2,4]triazin-2-ylamino)phenyl)acrylamide] | 4.2 | 0.0019 µM | 0.015 µM | 1.5 | 0.023 µM | 0.009 µM | 36.9 | 0.332 µM | 4.73 µM | 0.008 µM |  |  |  | 
4 | C=CC(=O)Nc1cc(Nc2ncc3ccc(-c4cnc5ccccc5c4)n3n2)c(OC)cc1N1CCC(N(C)C)CC1 [Compound J-13, N-(2-(4-(dimethylamino)piperidin-1-yl)-4-methoxy-5-(7-(quinolin-3-yl)pyrrolo[1,2-f][1,2,4]triazin-2-ylamino)phenyl)acrylamide] | 4.2 | 0.005 µM | 0.043 µM | 7 | 0.301 µM | 0.013 µM | 28.4 | 0.369 µM | 2.97 µM | 0.021 µM |  |  |  | 
5 | C=CC(=O)Nc1cc(Nc2cn3c(-c4ccn(C)c4)cnc3cn2)c(OC)cc1N(C)CCN(C)C [Compound J-16, N-(2-((2-(dimethylamino)ethyl)(methyl)amino)-4-methoxy-5-(3(1-methyl-1H-pyrrol-3-yl)imidazo[1,2-a]pyrazin-6-ylamino)phenyl)acrylamide] |  |  | 0.171 µM | 1.2 | 0.211 µM |  | 3 |  |  |  | 0.388 µM | 1.15 µM | > 10 µM | 
6 | C=CC(=O)Nc1cc(Nc2cn3c(-c4cccnc4)cnc3cn2)c(OC)cc1N(C)CCN(C)C [Compound J-17, N-(2-((2-(dimethylamino)ethyl)(methyl)amino)-4-methoxy-5-(3(pyridin-3-yl)imidazo[1,2-a]pyrazin-6-ylamino)phenyl)acrylamide] |  |  | 0.734 µM | 1.6 | 1.16 µM |  | 7 |  |  |  | 0.424 µM | 2.95 µM | > 10 µM | 
7 | C=CC(=O)Nc1cc(Nc2cn3c(-c4cnn(C)c4)cnc3cn2)c(OC)cc1N1CCC(N(C)C)CC1 [Compound J-19, N-(2-(4-(dimethylamino)piperidin-1-yl)-4-methoxy-5-(3(1-methyl-1H-pyrazol-4-yl)imidazo[1,2-α]pyrazinyl 6-amino)phenyl)acrylamide] |  |  | 0.289 µM | 1.13 | 0.327 µM | 0.243 µM | 5 | 1.21 µM | > 10 µM |  |  |  |  | 
8 | C#Cc1cccc(Nc2ncnc3cc(OCCOC)c(OCCOC)cc23)c1 [erlotinib] |  |  |  |  |  |  |  |  |  |  |  |  |  | greater than 3 uM
